According to patent US8921563B2, “1-[(4-hydroxypiperidin-4-yl)methyl]pyridin-2(1H)-one derivatives, preparation methods and uses thereof” (Institue of Pharmacology and Toxicology Academy of Military …, priority 2010, dated 2014):

What was measured:
[1] = biological target: SERT (Homo sapiens, UniProt P31645); assay: Competitive binding test of YL-0911 and positive drugs to SERT (hSERT from transfected cell lines)
[2] = tested on: mice; assay: Forced swim test in mice; format: in vivo; details: acute, 1 h before test
Procedure: 2.1.1 Forced Swim Test in Mice
Forced swim test in mice is an acute behavioral despair model established by Porsolt, et al.
(1) Experimental device: a glass cylinder (diameter 13 cm, height 24 cm, containing 10 cm of water maintained at 25).
(2) Experimental method: Male Kunming mice weighing 20-25 g. The mice were gently put in the water 1 h after intragastrically drug administration, and then the duration of immobility in the last 4 min of total 6 min test was recorded.

[3] = biological target: NET (Homo sapiens, UniProt P23975); assay: Preliminary test of NET binding effect of YL-0911; details: 10^-5 and 10^-7 mol/L; NET protein from HEK-293 cell line
Text: (4) Preliminary Test of NET Binding Effect of YL-0911 and Positive Control Drugs
Two different drug concentrations, 10^−5 and 10^−7 mol/L, were used to determine the binding effect of YL-0911 on NET protein extracted from the HEK-293 cell lines of stably expression NET.

[4] = biological target: T1, 5-HT1A receptor (Rattus norvegicus, UniProt P19327); assay: Screening: competitive binding test to 5-HT1A receptor using [3H]-8-OH-DPAT, rat hippocampi membrane protein; details: [3H]-8-OH-DPAT 1.28 nM, read-out: Inhibition percent (I %), competitive binding to 5-HT1A receptor
T1 construct: the content of 5-HT1A receptor extracted from rat hippocampi was 5.5 mg/ml; from tissue; host or cells: Wistar rat hippocampus, membrane preparation
T1 sequence (P19327 1-422): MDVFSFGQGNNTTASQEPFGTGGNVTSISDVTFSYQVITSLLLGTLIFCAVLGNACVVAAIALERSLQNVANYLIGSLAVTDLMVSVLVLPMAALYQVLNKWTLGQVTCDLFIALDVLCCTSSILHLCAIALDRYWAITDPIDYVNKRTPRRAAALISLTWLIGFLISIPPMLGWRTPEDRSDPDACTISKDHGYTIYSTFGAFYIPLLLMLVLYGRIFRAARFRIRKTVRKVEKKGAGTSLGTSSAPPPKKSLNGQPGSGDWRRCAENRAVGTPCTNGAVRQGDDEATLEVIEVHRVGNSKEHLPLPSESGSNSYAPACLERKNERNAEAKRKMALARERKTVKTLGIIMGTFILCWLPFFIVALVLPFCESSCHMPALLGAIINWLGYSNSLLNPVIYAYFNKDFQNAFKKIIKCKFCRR
Procedure: 1.4.1 Screening of YL Series Compounds
(1) Preparation of Membrane Proteins in Rat Hippocampi
Wister rats, 220-260 g, female and male, were sacrificed by decapitation and hippocampis were rapidly separated, weighed and to which homogenized in 10 times volume of Tris-HCl buffer solution (50 mM Tris-HCl, 5 mM MgCl2,1 mM EDTA, 0.5% (WN) BSA, 1 mM PMSF, 3 μg/ml proteinase inhibitor, 0.1% NaN3, 0.32M sucrose, pH 7.4) at 15,000 rpm for 30 s, total 5 times. The homogenate was centrifuged under 1000×g for 10 minutes and the supernatant was then centrifuged under 39000×g for 10 minutes. The precipitate was collected, and resuspended with 10 times volume of Tris-HCl buffer solution (pH 7.4) relative to the original weight, then centrifuged under 39000×g for 10 minutes. The precipitate was washed with the same buffer solution, centrifuged under 39000×g for 10 minutes and the precipitate was suspended with the above buffer solution. After sub-packaged (the whole operation procedures were performed under ice bath), the product was stored at −80° C. The protein concentration was measured by Lowrry method.
1) In the 5-HT1A receptor binding test, tubes are firstly placed under reaction condition of 25° C.
2) To all of the tubes, the receptor proteins extracted from rat hippocampi in an amount of 100 μg were added in sequence.
4) To the test tubes, 30 μl of the compound in corresponding concentrations (used for screening: 10^−5, 10^−7, 10^−9M) was added in sequence.
6) Tris-HCl buffer solution (50 mM Tris-HCl, 1 mM EDTA, 5 mM MgCl2, 0.1 mM PMSF, 0.1% NaN3, pH 7.4) was supplied to all of the tubes to reach a volume of 300 μl.
7) The reaction was performed at 25° C. for 1 h.
8) Then samples were applied to 49-type glass fibre filter, vacuum suction filtered, then washed three times with 2 ml ice-cold Tris-HCl buffer solution (50 mM Tris-HCl buffer solution, 1 mM EDTA, 5 mM MgCl2, 1 mM PMSF, 0.1% NaN3, 3 μg/ml proteinase inhibitor, pH 7.4). […] The radio-activity was measured by a scintillation counter.

[5] = tested on: mice; assay: Hole board test in mice; format: in vivo; details: long-term (23 days); for Number of Head dips / Time of head dipping: 5 min
Procedure: Hole board test, an animal model of anxiety established by Boissie, et al (1962), was performed in mice.
1) Experimental device: a transparent Perspex box (40×40×27 cm) which had four holes (3 cm in diameter, 1.8 cm in depth) in the floor. The distance of each hole center to its closest wall is 10 cm.
2) Experimental method: Male Kunming mice weighing 20-25 g. The mice were intragastrically administered with YL-0911 or vehicle (distilled water). After 23 days, the mice were placed at center of the hole board with their backs facing to the observer. A head dip was scored if the animal's head dipped into the hole at least up to eye level The latency to the first head-dip, the number of head-dips and the time spent in head-dipping were recorded for 5 min.

[6] = biological target: T2, 5-HT transport protein (SERT) (Rattus norvegicus, UniProt P31652); assay: Screening: competitive binding test to SERT using [3H]-citalopram; details: [3H]-citalopram 1 nM, read-out: Inhibition percent (I %), competitive binding to 5-HT transport protein (SERT)
T2 construct: Preparation of Membrane Proteins in Rat Hippocampi; from tissue; host or cells: Wistar rat hippocampus
Procedure: The homogenate was centrifuged under 1000×g for 10 minutes and the supernatant was then centrifuged under 39000×g for 10 minutes. The precipitate was collected, and resuspended with 10 times volume of Tris-HCl buffer solution (pH 7.4) relative to the original weight, then centrifuged under 39000×g for 10 minutes. The precipitate was washed with the same buffer solution, centrifuged under 39000×g for 10 minutes and the precipitate was suspended with the above buffer solution. After sub-packaged (the whole operation procedures were performed under ice bath), the product was stored at −80° C. The protein concentration was measured by Lowrry method.

T2 sequence (P31652 whole entry): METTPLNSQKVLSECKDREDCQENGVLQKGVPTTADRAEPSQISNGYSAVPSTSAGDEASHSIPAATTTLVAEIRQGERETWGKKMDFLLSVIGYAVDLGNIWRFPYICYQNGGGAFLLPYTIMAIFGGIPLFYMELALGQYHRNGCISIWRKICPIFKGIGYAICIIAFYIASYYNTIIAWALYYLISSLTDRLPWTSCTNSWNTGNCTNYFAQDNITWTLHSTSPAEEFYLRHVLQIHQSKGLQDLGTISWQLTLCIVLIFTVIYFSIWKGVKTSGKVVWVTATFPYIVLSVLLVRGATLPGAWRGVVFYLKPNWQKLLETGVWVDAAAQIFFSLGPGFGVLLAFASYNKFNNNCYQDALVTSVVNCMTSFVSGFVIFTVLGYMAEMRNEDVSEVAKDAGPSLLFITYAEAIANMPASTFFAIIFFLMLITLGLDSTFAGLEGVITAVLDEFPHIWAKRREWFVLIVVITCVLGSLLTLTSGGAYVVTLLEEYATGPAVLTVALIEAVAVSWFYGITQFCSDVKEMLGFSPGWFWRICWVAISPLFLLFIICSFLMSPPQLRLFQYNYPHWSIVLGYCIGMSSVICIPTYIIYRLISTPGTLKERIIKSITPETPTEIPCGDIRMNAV
Chain of NET (P23975 whole entry): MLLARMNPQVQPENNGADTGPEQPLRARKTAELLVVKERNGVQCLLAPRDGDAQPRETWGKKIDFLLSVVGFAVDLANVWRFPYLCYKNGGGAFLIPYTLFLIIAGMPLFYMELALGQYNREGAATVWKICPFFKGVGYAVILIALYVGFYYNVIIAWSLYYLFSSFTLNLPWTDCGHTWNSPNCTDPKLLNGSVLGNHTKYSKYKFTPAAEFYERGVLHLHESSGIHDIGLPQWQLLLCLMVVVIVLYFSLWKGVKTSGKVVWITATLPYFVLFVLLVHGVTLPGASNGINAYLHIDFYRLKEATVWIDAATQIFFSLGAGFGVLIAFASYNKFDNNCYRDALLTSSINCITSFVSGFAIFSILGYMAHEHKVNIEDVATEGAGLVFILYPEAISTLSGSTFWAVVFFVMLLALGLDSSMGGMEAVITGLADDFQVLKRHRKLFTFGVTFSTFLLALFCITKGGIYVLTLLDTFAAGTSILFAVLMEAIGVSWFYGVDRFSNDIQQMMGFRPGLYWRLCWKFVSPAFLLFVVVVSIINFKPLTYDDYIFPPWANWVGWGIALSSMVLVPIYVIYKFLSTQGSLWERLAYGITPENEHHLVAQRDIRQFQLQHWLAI
Chain of SERT (P31645 whole entry): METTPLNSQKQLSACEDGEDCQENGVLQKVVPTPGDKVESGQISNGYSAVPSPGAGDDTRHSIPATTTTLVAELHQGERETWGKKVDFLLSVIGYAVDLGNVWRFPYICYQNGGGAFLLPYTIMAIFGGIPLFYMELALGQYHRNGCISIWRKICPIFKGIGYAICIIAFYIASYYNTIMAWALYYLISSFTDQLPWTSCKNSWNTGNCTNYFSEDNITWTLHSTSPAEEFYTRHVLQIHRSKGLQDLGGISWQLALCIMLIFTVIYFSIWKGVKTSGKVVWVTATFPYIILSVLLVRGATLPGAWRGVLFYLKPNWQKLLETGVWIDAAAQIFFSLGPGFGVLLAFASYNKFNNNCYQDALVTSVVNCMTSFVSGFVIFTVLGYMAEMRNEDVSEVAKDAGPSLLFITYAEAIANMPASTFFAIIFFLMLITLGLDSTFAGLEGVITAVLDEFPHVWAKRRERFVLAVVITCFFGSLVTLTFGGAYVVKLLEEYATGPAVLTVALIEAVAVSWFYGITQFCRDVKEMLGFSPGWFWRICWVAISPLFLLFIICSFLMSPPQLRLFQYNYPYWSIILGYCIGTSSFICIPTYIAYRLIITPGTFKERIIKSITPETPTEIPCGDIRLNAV

In the case of `O=c1ccccn1CC1(O)CCN(Cc2ccccc2)CC1` [Compound 1, 1-[(1-benzyl-4-hydroxypiperidin-4-yl)-methyl]-pyridin-2(1H)-one], the Ki [1] is reported as 5.38 ± 0.27 nM, the “Immobility time (s), forced swim test” value ([2]; 0.625 mg/kg p.o.) is reported as 126.1 ± 60.9 s and the “Immobility time (s), forced swim test” value ([2]; 1.25 mg/kg p.o.) is reported as 72.0 ± 46.5 s. For the same compound, the “Immobility time (s), forced swim test” value ([2]; 5 mg/kg p.o.) was 149.6 ± 39.1 s, the “affinity to NET (selectivity)” value [3] was “obviously lower than the affinity to SERT and 5-HT1A” and the inhibition at 10 µM ([4]; compound 10^-5 mol/L) was 100%. The inhibition at 0.1 µM ([4]; compound 10^-7 mol/L) was 85%, the melting point was 216 to 218 °C and the “the latency to the first head-dip” value ([5]; 0.625 mg/kg p.o.) was 62.60 ± 16.75 s. For the same compound, the “Number of Head dips” value ([5]; 0.625 mg/kg p.o.) was 6.40 ± 0.97, the “Time of head dipping” value ([5]; 0.625 mg/kg p.o.) was 3.75 ± 0.91 s and the “the latency to the first head-dip” value ([5]; 1.25 mg/kg p.o.) was 33.00 ± 6.34 s. For the same compound, the “Number of Head dips” value ([5]; 1.25 mg/kg p.o.) was 10.60 ± 1.17, the “Time of head dipping” value ([5]; 1.25 mg/kg p.o.) was 6.86 ± 0.55 s and the “the latency to the first head-dip” value ([5]; 5 mg/kg p.o.) was 31.60 ± 6.88 s. For the same compound, the “Number of Head dips” value ([5]; 5 mg/kg p.o.) was 7.40 ± 1.00, the “Time of head dipping” value ([5]; 5 mg/kg p.o.) was 5.95 ± 0.93 s and the inhibition at 10 µM ([6]; compound 10^-5 mol/L) was 100%. It also gave an inhibition at 0.1 µM ([6]; compound 10^-7 mol/L) of 84%.
